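Cultured in 96-well plates, cells were exposed to test compound for 48 hours across five concentrations. At the TGI there is no net growth.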 Where a SMILES comes first, the peptide text is derived from it. The star is where a group is joined. Cbz = O=C(OCc1ccccc1)*; Boc = CC(C)(C)OC(=O)*; OSu = O=C1CCC(=O)N1O*; Bn = c1ccc(C*)cc1
Assays:
Assay in all cases: NCI-60 cell line screen, 48 h
U251 CNS = tested on: U251 CNS
UO-31 renal = tested on: UO-31 renal
OVCAR-5 ovarian = tested on: OVCAR-5 ovarian
SK-MEL-28 melanoma = tested on: SK-MEL-28 melanoma
SF-295 CNS = tested on: SF-295 CNS
SF-539 CNS = tested on: SF-539 CNS
MALME-3M melanoma = tested on: MALME-3M melanoma
NCI-H23 lung = tested on: NCI-H23 lung
786-0 renal = tested on: 786-0 renal
M14 melanoma = tested on: M14 melanoma
ACHN renal = tested on: ACHN renal
RPMI-8226 leukemia = tested on: RPMI-8226 leukemia
NCI-H226 lung = tested on: NCI-H226 lung
BT-549 breast = tested on: BT-549 breast

Measured: TGI

CCOC(=O)[C@@]12C3C=CC(CC3)[C@]1(C(=O)c1ccccc1)C(=O)C(=O)N2c1ccccc1 (stereo not given in full)
not listed: NCI-H226 lung | BT-549 breast
> 100 µM: all other assays above

CO[C@@H]1C=C[C@@]23c4cc5c(cc4C(=O)O[C@H]2CN(C)[C@H]3C1)OCO5
not listed: MALME-3M melanoma | NCI-H226 lung | BT-549 breast
> 100 µM: all other assays above

C=C(C)[C@H]1C=C[C@@H](OC(=O)c2cccnc2)[C@@]23CO[C@@](C)([C@H](OC(=O)c4cccnc4)[C@@]4(OC(C)=O)C[C@H](C)[C@H](OCCC)[C@@H]4[C@H]2OC(C)=O)[C@H]13
not listed: SK-MEL-28 melanoma | MALME-3M melanoma
> 15 µM: all other assays above

CC(=O)NC1=C(NCCN(C)C)C(=O)c2ccccc2C1=O
29 µM: U251 CNS
34.4 µM: SF-539 CNS
27.8 µM: NCI-H23 lung
14.3 µM: MALME-3M melanoma
not listed: OVCAR-5 ovarian | RPMI-8226 leukemia | BT-549 breast
> 50 µM: all other assays above

CC(C)(C)OC(=O)NC(Cc1ccc(OCc2ccccc2)cc1)C(=O)NC(CCCCNC(=O)OCc1ccccc1)C(=O)ON1C(=O)CCC1=O (stereo not given) (Boc-Tyr(Bn)-Lys(Cbz)-OSu; configuration not given here)
42.6 µM: ACHN renal
46.9 µM: MALME-3M melanoma
32.2 µM: U251 CNS
34.4 µM: NCI-H23 lung
46.2 µM: M14 melanoma
43.3 µM: BT-549 breast
76.3 µM: UO-31 renal
45.3 µM: RPMI-8226 leukemia
35.7 µM: 786-0 renal
76.7 µM: OVCAR-5 ovarian
99.6 µM: NCI-H226 lung
30.8 µM: SK-MEL-28 melanoma

c1ccc(-n2nc3ccc4nonc4c3n2)cc1
not listed: UO-31 renal | NCI-H226 lung | BT-549 breast
> 100 µM: all other assays above

COC(CC1(/C=C/O[Si](C(C)C)(C(C)C)C(C)C)C(=O)N(C)c2ccccc21)OC (stereo not given)
71.6 µM: 786-0 renal
90 µM: NCI-H226 lung
not listed: SF-539 CNS | MALME-3M melanoma | BT-549 breast
> 100 µM: all other assays above

N#C/C(C(=O)Nc1ccc(Cl)cc1)=C(/N)N1CCCCC1
not listed: MALME-3M melanoma
> 100 µM: all other assays above

COCCCNC(=O)C1=C(C)NC(C)=C(C(=O)NCCCOC)C1
41.2 µM: MALME-3M melanoma
not listed: BT-549 breast
> 100 µM: all other assays above

CN(C)S(=O)(=O)/N=C/c1cccc(/C=N/S(=O)(=O)N(C)C)c1
not listed: MALME-3M melanoma
> 100 µM: all other assays above

CC(C)(C)OC(=O)NCCc1cccc2c1oc1c(CCC(=O)O)cccc12
not listed: BT-549 breast
> 100 µM: all other assays above

CCOC(=O)[C@@]12C[C@](/C=C/OC)(O[Si](C)(C)C)[C@@]13c1cc(OC)c(OC)cc1CCN3C(=O)C2O (stereo not given in full)
not listed: BT-549 breast
> 100 µM: all other assays above

C[n+]1c(-c2ccc(/C=N/NC(=O)C(=O)N/N=C/c3ccc(-c4cn5ccsc5[n+]4C)cc3)cc2)cn2ccsc21
not listed: MALME-3M melanoma | NCI-H23 lung | NCI-H226 lung | BT-549 breast
> 100 µM: all other assays above

c1cc2c(c(NC3=NCCO3)c1)CCC2
not listed: BT-549 breast
> 100 µM: all other assays above

COC1=CCC=C(C[C@@H]2NCCc3cc(OC)c(OC)cc32)C1
not listed: BT-549 breast
> 100 µM: all other assays above

CC1(C)C(O)C[C@@H](O)[C@@]2(C)C1CC[C@]1(C)C2C[C@@H](O)[C@@H]2C([C@@]3(C)CC[C@@H](C(C)(C)O)O3)CCC21C (stereo not given in full)
27.5 µM: SF-539 CNS
32.8 µM: UO-31 renal
27.7 µM: M14 melanoma
35.3 µM: NCI-H23 lung
27.1 µM: SK-MEL-28 melanoma
25.5 µM: U251 CNS
30.7 µM: OVCAR-5 ovarian
34.7 µM: NCI-H226 lung
31.8 µM: MALME-3M melanoma
66.5 µM: RPMI-8226 leukemia
30.1 µM: 786-0 renal
35.8 µM: ACHN renal
30.2 µM: SF-295 CNS

Cc1ccc(S(=O)(=O)N2CCSCCN(S(=O)(=O)c3ccc(C)cc3)CCN(S(=O)(=O)c3ccc(C)cc3)CC2)cc1
70.5 µM: BT-549 breast
56.8 µM: SF-539 CNS
90.1 µM: U251 CNS
73.9 µM: 786-0 renal
not listed: MALME-3M melanoma | ACHN renal
> 100 µM: all other assays above

COc1cc(C2C(C#N)=C(N)OC3=C2CCS(=O)(=O)c2ccc(C)cc23)cc(OC)c1OC (stereo not given)
not listed: SF-295 CNS | SF-539 CNS
> 100 µM: all other assays above

COC(=O)[C@@H]1CN(C(C)=O)C(=O)N1C(=O)OCc1ccccc1
not listed: BT-549 breast
> 100 µM: all other assays above

Oc1ccc(N=C2CCC(=C(c3ccccc3)c3ccc(Nc4ccc(O)cc4)cc3)CC2)cc1
not listed: MALME-3M melanoma | BT-549 breast
> 100 µM: all other assays above

CC(C)(C)Nc1noc(=O)n1C(C)(C)C
not listed: BT-549 breast
> 100 µM: all other assays above

CCc1c(Cc2[nH]c(Cc3[nH]c(C=O)c(C)c3CC)c(CC)c2CC)[nH]c(C=O)c1C
> 1 µM: NCI-H23 lung
not listed: OVCAR-5 ovarian | BT-549 breast
> 100 µM: all other assays above

COc1ccc(OCc2ccc3nc(-c4ccccc4)c(Cl)nc3c2)cc1
32.6 µM: 786-0 renal
31.6 µM: U251 CNS
42.3 µM: SF-539 CNS
62.1 µM: SF-295 CNS
37.3 µM: MALME-3M melanoma
67.9 µM: NCI-H23 lung
not listed: NCI-H226 lung | BT-549 breast
> 100 µM: all other assays above

O=C(O)c1ccc(NC(NC(=O)C(C(F)(F)F)C(F)(F)F)(C(F)(F)F)C(F)(F)F)cc1
not listed: SF-295 CNS | MALME-3M melanoma | NCI-H226 lung
> 100 µM: all other assays above

O=C(c1ccccc1)c1ccc(-n2c3ccccc3c3ccc4c(c32)C(=O)C=CC4=O)cc1
53.8 µM: NCI-H226 lung
7.78 µM: UO-31 renal
> 100 µM: RPMI-8226 leukemia
29.5 µM: NCI-H23 lung
11.6 µM: ACHN renal
38.1 µM: OVCAR-5 ovarian
34.2 µM: SF-539 CNS
5.77 µM: 786-0 renal
23.6 µM: M14 melanoma
30.4 µM: U251 CNS
38.5 µM: BT-549 breast
30.1 µM: SK-MEL-28 melanoma
32.4 µM: SF-295 CNS

O=C(N=Nc1cccc(Cl)c1)NNc1cccc(Cl)c1
50.8 µM: ACHN renal
56.8 µM: RPMI-8226 leukemia
> 100 µM: NCI-H226 lung | NCI-H23 lung
45.5 µM: UO-31 renal
41 µM: SK-MEL-28 melanoma
40 µM: U251 CNS
46.5 µM: OVCAR-5 ovarian
28.4 µM: 786-0 renal
39.6 µM: MALME-3M melanoma
32.2 µM: M14 melanoma
